Source: ChEMBL document CHEMBL3885861, “Open TG-GATES”

Species: Rattus norvegicus
Test: Open TG-GATES - Regimen: Single
Format: toxicity, organism-based, Sprague-Dawley
Design: regimen Single, gender Male, age 6 weeks
Conditions: in vivo, po, 30 mg/kg, route gavage, dose level Low; for APTT / Bas / Eos / Fbg / Hb / Ht / Lym / MCH / MCHC / MCV / Mono / Neu / PT / Plat / RBC / Ret / WBC: tissue Blood; for KIDNEY_L / KIDNEY_R / KIDNEY_TOTAL: tissue Kidney; for LIVER: tissue Liver; for A/G / ALP / ALT / AST / BUN / CRE / Ca / Cl / DBIL / GLC / IP / K / LDH / Na / PL / RALB / TBIL / TC / TG / TP / gamma-GTP: tissue Plasma

CC[C@H]1[C@@H]2C[C@H]3[C@@H]4N(C)c5ccccc5[C@]45C[C@@H]([C@@H]2[C@H]5O)N3[C@@H]1O [AJMALINE]
TERMINAL_BW (3 h): 194.7 g
APTT (3 h): 16.9 s
Bas (3 h): 0%
Eos (3 h): 1%
Fbg (3 h): 196.4 mg/dL
Hb (3 h): 12.8 g/dL
Ht (3 h): 39.1%
Lym (3 h): 78.6%
MCH (3 h): 21.7 pg
MCHC (3 h): 32.8%
MCV (3 h): 66.3 fL
Mono (3 h): 8.8%
Neu (3 h): 12%
PT (3 h): 11.6 s
Plat (3 h): 121.5 x10_4/uL
RBC (3 h): 590.6 x10_4/ul
Ret (3 h): 12.4%
WBC (3 h): 114.3 x10_2/uL
KIDNEY_L (3 h): 0.9 g
KIDNEY_R (3 h): 0.9 g
KIDNEY_TOTAL (3 h): 1.8 g
LIVER (3 h): 9.1 g
A/G (3 h): 2.3
ALP (3 h): 821 IU/L
ALT (3 h): 34.8 IU/L
AST (3 h): 69.8 IU/L
BUN (3 h): 12.2 mg/dL
CRE (3 h): 0.4 mg/dL
Ca (3 h): 11.3 mg/dL
Cl (3 h): 102.4 meq/L
DBIL (3 h): 0.052 mg/dL
GLC (3 h): 193.6 mg/dL
IP (3 h): 9 mg/dL
K (3 h): 4.5 meq/L
LDH (3 h): 108 IU/L
Na (3 h): 137.8 meq/L
PL (3 h): 141.6 mg/dL
RALB (3 h): 3.7 g/dL
TBIL (3 h): 0.4 mg/dL
TC (3 h): 77.4 mg/dL
TG (3 h): 55.8 mg/dL
TP (3 h): 5.3 g/dL
gamma-GTP (3 h): 1.6 IU/L
TERMINAL_BW (6 h): 190.9 g
APTT (6 h): 17.2 s
Bas (6 h): 0%
Eos (6 h): 1.2%
Fbg (6 h): 205 mg/dL
Hb (6 h): 12.8 g/dL
Ht (6 h): 38.9%
Lym (6 h): 74%
MCH (6 h): 22.2 pg
MCHC (6 h): 33%
MCV (6 h): 67.2 fL
Mono (6 h): 7%
Neu (6 h): 18.2%
PT (6 h): 11.8 s
Plat (6 h): 114.2 x10_4/uL
RBC (6 h): 578.4 x10_4/ul
Ret (6 h): 11.9%
WBC (6 h): 89.1 x10_2/uL
KIDNEY_L (6 h): 0.9 g
KIDNEY_R (6 h): 0.9 g
KIDNEY_TOTAL (6 h): 1.8 g
LIVER (6 h): 8.4 g
A/G (6 h): 2
ALP (6 h): 865.4 IU/L
ALT (6 h): 40.6 IU/L
AST (6 h): 70 IU/L
BUN (6 h): 9 mg/dL
CRE (6 h): 0.5 mg/dL
Ca (6 h): 10.8 mg/dL
Cl (6 h): 102.6 meq/L
DBIL (6 h): 0.068 mg/dL
GLC (6 h): 195.8 mg/dL
IP (6 h): 9.7 mg/dL
K (6 h): 4.6 meq/L
LDH (6 h): 104.8 IU/L
Na (6 h): 138.8 meq/L
PL (6 h): 141.4 mg/dL
RALB (6 h): 3.5 g/dL
TBIL (6 h): 0.4 mg/dL
TC (6 h): 82.8 mg/dL
TG (6 h): 46.8 mg/dL
TP (6 h): 5.3 g/dL
gamma-GTP (6 h): 1.6 IU/L
TERMINAL_BW (9 h): 190.6 g
APTT (9 h): 17.1 s
Bas (9 h): 0%
Eos (9 h): 1%
Fbg (9 h): 201.2 mg/dL
Hb (9 h): 12.6 g/dL
Ht (9 h): 38.1%
Lym (9 h): 70.4%
MCH (9 h): 21.6 pg
MCHC (9 h): 33%
MCV (9 h): 65.6 fL
Mono (9 h): 8%
Neu (9 h): 21%
PT (9 h): 12.1 s
Plat (9 h): 119.4 x10_4/uL
RBC (9 h): 580.8 x10_4/ul
Ret (9 h): 10.6%
WBC (9 h): 83.7 x10_2/uL
KIDNEY_L (9 h): 0.9 g
KIDNEY_R (9 h): 0.9 g
KIDNEY_TOTAL (9 h): 1.8 g
LIVER (9 h): 8.1 g
A/G (9 h): 2.2
ALP (9 h): 827.2 IU/L
ALT (9 h): 34.6 IU/L
AST (9 h): 64.6 IU/L
BUN (9 h): 12.2 mg/dL
CRE (9 h): 0.6 mg/dL
Ca (9 h): 10.4 mg/dL
Cl (9 h): 104.8 meq/L
DBIL (9 h): 0.1 mg/dL
GLC (9 h): 199.2 mg/dL
IP (9 h): 10.3 mg/dL
K (9 h): 5 meq/L
LDH (9 h): 108.2 IU/L
Na (9 h): 139 meq/L
PL (9 h): 132 mg/dL
RALB (9 h): 3.6 g/dL
TBIL (9 h): 0.4 mg/dL
TC (9 h): 82.2 mg/dL
TG (9 h): 48.4 mg/dL
TP (9 h): 5.2 g/dL
gamma-GTP (9 h): 0.8 IU/L
TERMINAL_BW (24 h): 210.7 g
APTT (24 h): 16.3 s
Bas (24 h): 0%
Eos (24 h): 1%
Fbg (24 h): 225 mg/dL
Hb (24 h): 12.8 g/dL
Ht (24 h): 38.6%
Lym (24 h): 75.8%
MCH (24 h): 21.7 pg
MCHC (24 h): 33.2%
MCV (24 h): 65.3 fL
Mono (24 h): 7.6%
Neu (24 h): 15.2%
PT (24 h): 11.5 s
Plat (24 h): 112.6 x10_4/uL
RBC (24 h): 590.8 x10_4/ul
Ret (24 h): 10.5%
WBC (24 h): 105.8 x10_2/uL
KIDNEY_L (24 h): 1 g
KIDNEY_R (24 h): 1 g
KIDNEY_TOTAL (24 h): 2 g
LIVER (24 h): 10.6 g
A/G (24 h): 2.1
ALP (24 h): 875.4 IU/L
ALT (24 h): 36.8 IU/L
AST (24 h): 66.2 IU/L
BUN (24 h): 15.8 mg/dL
CRE (24 h): 0.6 mg/dL
Ca (24 h): 11.2 mg/dL
Cl (24 h): 100.8 meq/L
DBIL (24 h): 0.016 mg/dL
GLC (24 h): 207.6 mg/dL
IP (24 h): 8.4 mg/dL
K (24 h): 4.5 meq/L
LDH (24 h): 120.6 IU/L
Na (24 h): 140 meq/L
PL (24 h): 156.4 mg/dL
RALB (24 h): 3.8 g/dL
TBIL (24 h): 0.3 mg/dL
TC (24 h): 86.4 mg/dL
TG (24 h): 114.4 mg/dL
TP (24 h): 5.6 g/dL
gamma-GTP (24 h): 1.4 IU/L
